Laboratory results published in US20200368288A1, “Hierarchic Neural Microphysiological System for Brain Function and Disorders” (The Trustees of Columbia University in the City of New York, priority 2018, published 2020).
Read-outs that look alike come from different tables or passages of the source.

Assays:
Setd1a+/− MoNNets = experiment: Rescue of Setd1a+/- MoNNet network pathophysiology by LSD1 inhibition, Ca2+ imaging before and after treatment; assay type: cell-based, mice
From the text: Taking advantage of MoNNet properties, effective in vitro models of SCZ-associated network pathophysiology (SCZ-MoNNets) were developed. SCZ is characterized by psychosis, cognitive dysfunction and a broad spectrum of complex behavioral abnormalities (Clementz et al., 2016). Several recent studies in animal models have investigated the underlying circuit pathophysiology, identifying deficits in activity synchrony and degraded ensembles (Fenelon et al., 2013; Hamm et al., 2017; Hamm et al., 2020; Marissal et al., 2018; Sigurdsson et al., 2010; Zaremba et al., 2017). Therefore, the MoNNet approach provides a well suited system to develop quantitative in vitro models of SCZ-like network function pathophysiology. We developed and characterized MoNNet preparations (SCZ-MoNNets) from two well-studied genetic models—Setd1a+/− and Df(16)A+/−, which recapitulate SCZ-related cognitive and circuitry pathophysiology (Fenelon et al., 2013; Mukai et al., 2019). […] The lower-level deviations in molecular, cellular and synaptic pathways underlying the observed alterations in network states remain to be determined and may be different for each mutation.
Hippocampal neuronal cultures were generated from E17 to E18 embryos by building upon standard cell culture techniques, as follows. Pregnant mice were anesthetized under isoflurane, and euthanized by cervical dislocation. Hippocampus were dissected in Hibernate E (Gibco) iced cold media, and incubated in 0.25% Trypsin-EDTA (Gibco) at 37° C. for […]., followed by […] DNAse I (1 μg/ml; Sigma) incubation at room temperature. Mechanical dissociation of dissected hippocampus was performed by repeated pipetting with a fire-polished glass Pasteur pipet until a homogenous cell suspension was obtained. Cell viability was determined by Trypan Blue exclusion assay. Cell solution was then centrifuged at 150 g for […], and the supernatant was removed. Resulting cell pellet was resuspended in the culture media containing Neurobasal media, 2% B27, 0.5 mM Glutamate and 1% Penicillin/Streptomycin (Gibco). Cells were infected with AAV1.Syn.GCaMP6f.WPRE.SV40 virus ((Chen et al., 2013); Pennsylvania Vector Core, Cat #:AV-1-PV2822). For single spheroid cultures, 2% agarose 96 wells (400 μm diameter) micro-molds were created by using custom casts fabricated by 3D printing (UV-resin; Formlabs 3D printer). The agarose micro molds were equilibrated in the culture medium over a 24 h period prior to plating. […]
Imaging was performed using a wide-field fluorescence microscope (Leica M165FC) equipped with a long-pass GFP filter set (Leica filter set ET GFP M205FA/M165FC), 1.6× Plan Apo objective, 3.2× zoom and sCMOS camera (Hamamatsu ORCA-Flash 4.0). Time-lapse videos were recorded at 30 Hz for ˜4.5 min at 37° C. […]

NNet preparation = experiment: Modeling epileptic seizures with NNet (4-AP local injection, picrotoxin addition); assay type: cell-based
Experimental: 4-AP, a commonly used seizure inducing compound, was injected in a specific neurosphere of an NNet preparation. […] As shown in the magnified view (top row, third) these peaks are maintained during the time. […] In FIG. 6 the colored maps (bottom) show the spatial progression of the seizure waves in three different bouts (labeled as Epi. Events #1, #2, and #3). The directionality of seizure spread is maintained constant from bottom-left to top-right.

MoNNet neurons = experiment: Whole cell electrophysiology recordings in MoNNet, synaptic transmission across spheroids; assay type: cell-based, mice
Experimental: Whole cell recordings were performed as described previously (Crabtree et al., 2016; Crabtree et al., 2017), using borosilicate glass pipettes (initial resistance 3-5.5 MS2) which were filled with an intracellular solution containing: K methanesulfonate 125 mM, NaCl 10 mM, CaCl2) 1 mM, MgCl2 1 mM, HEPES 10 mM, EGTA 0.1 mM, MgATP 5 mM, NaGTP 0.5 mM. The pH was adjusted to 7.2 with KOH. Spontaneous synaptic events were assessed at −70 mV (presumptive glutamatergic) and at 0 mV (presumptive GABAergic). Excitatory and inhibitory evoked synaptic responses were assessed as follows. Evoked synaptic responses across spheroid units were elicited with electric stimulation applied with a concentric bipolar stimulating electrode (tip diameter 0.125 mm, FHC, Bowdinham, Me.) positioned on a spheroid >250 μm away from the spheroid containing the recorded neuron. The stimulus was set to 10V, a duration of 100 μs and applied at 10 Hz. […] Neurons were then held in voltage-clamp at 0 mV to assess evoked inhibitory synaptic responses. For assessing neuronal excitability in current-step, action potential firing was recorded in response to incremental (20 pA steps) depolarizing current injections (500 ms duration). Bridge balance of series resistance was employed and recordings with series resistance >20 MΩ were rejected. For current-step assays, resting membrane potential was adjusted to ˜−70 mV by injection of a small standing current. For voltage steps, cells were held at −70 mV, and 10 mV steps were applied ranging from −100 mV to 50 mV. Series resistance-related errors were partially corrected by using 70% prediction and 70% series resistance compensation.

LSD1 = LSD1 (Mus musculus, UniProt Q6ZQ88); settings: Mukai et al., 2019; cited from earlier work
NNet preparations = experiment: Chronic ketamine treatment NNet model of schizophrenia pathophysiology, calcium imaging; settings: ketamine 10 μM every 24 hours vs saline control; imaging before and 2 days after
[1] = 2-day treatment, TCP 600 nM, ORY-1001 0.6-0.9 nM
[2] = picrotoxin added after 4-AP local injection

Molecule: N[C@@H]1C[C@H]1c1ccccc1 (racemic) [TCP, Tranylcypromine]
- ensembles stability (Setd1a+/− MoNNets): partial rescue
- network synchrony (Setd1a+/− MoNNets): partial rescue

Molecule: Nc1ccncc1 [4-AP]
- seizure peaks (NNet preparation; local injection in a specific neurosphere): typical high seizure peaks

Molecule: N#Cc1cc2[nH]c(=O)c(=O)[nH]c2cc1[N+](=O)[O-] [CNQX]
- evoked inhibitory synaptic transmission across spheroids (MoNNet neurons; CNQX 10 μM blockade of glutamatergic transmission, cell held at 0 mV): robust evoked inhibitory synaptic transmission
- evoked excitatory synaptic responses (MoNNet neurons; CNQX 10 μM washed in with ACSF, voltage-clamp at −70 mV, 10 Hz stimulation of neighboring spheroid): completely ablated
- spontaneous inhibitory synaptic events (MoNNet neurons; CNQX 10 μM, neuron held at 0 mV): reduction

Molecule: N[C@H]1CC[C@H](N[C@@H]2C[C@H]2c2ccccc2)CC1 [ORY-1001]
- ensembles stability (Setd1a+/− MoNNets; [1]): partial rescue
- network synchrony (Setd1a+/− MoNNets; [1]): partial rescue
- cellular and behavioral defects (LSD1): effective in partial rescue

Molecule: CNC1(c2ccccc2Cl)CCCCC1=O (stereo not drawn) [ketamine]
- correlation among neurosphere units of NNet (NNet preparations): decreased

Molecule: picrotoxin
- directionality of seizure spread (NNet preparation; [2]): directionality becomes random
- frequency of number of events (NNet preparation; [2]): increased frequency of number of events
